70 substances from patent US20060293223A1 (Eli Lilly and Company Patent Division, priority 2003, published 2006) can be followed below.

Positions of bridges follow the written chain, without caps; N, C: chain ends. Non-standard residues stand in square brackets, D forms with d. No end group written: not given here. hCys = N[C@@H](CCS)C(=O)O
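Further: ratio of EC50 values obtained at MC1 versus MC4 receptors, with MC1 potency measured by luciferase reporter activity in stably transfected cells expressing human MC1.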

The experiment concerns MC1/MC4. The settings on record: ratio MC1/MC4.
Turning to “Ac-YRCGH[dF]RWC-NH2 (disulfide 3-9) [Compound 12]”, the MC1/MC4 selectivity was 6.72.
With “YR[hCys]H[dF]RWC-NH2 (disulfide 3-8) [Compound 162]”, the MC1/MC4 selectivity is 30.07.
Turning to “Ac-Tyr-Arg-cyclo[Cys-Glu-(1-Me-D-His)-(4-OMe-D-Phe)-Arg-Trp-Cys]-NH2 [Compound 95]”, the MC1/MC4 selectivity amounted to 3.21.
Then “Ac-Tyr-Arg-cyclo[Cys-Glu-(1-Me-His)-(4-OMe-D-Phe)-Arg-Trp-Cys]-NH2 [Compound 94]”, with 16.97; and “N-(2-naphthalenesulfonyl)-cyclo[hCys-His-D-Phe-Arg-Trp-Cys]-NH2 [Compound 151]”, with 14.00.
Then “N-cyclopropanecarbonyl-cyclo[hCys-His-D-Phe-Arg-Trp-Cys]-NH2 [Compound 141]”, with 83.00; and “cyclo[Cys-Glu-His-D-Phe-Arg-Trp-Cys]-NH2 [Compound 29]”, with 15.00.
Then “Ac-Tyr-Arg-cyclo[hCys-Glu-His-D-Phe-Arg-Trp-Cys]-NH2 [Compound 166]”, with 9.38.
For “Ac-KCEH[dF]RWC-NH2 (disulfide 2-8) [Compound 58]”, the MC1/MC4 selectivity is given as 31.69.
Take “Ac-Arg-cyclo[Cys-Glu-(1-Me-His)-(4-Cl-D-Phe)-Arg-Trp-Cys]-NH2 [Compound 87]”: the MC1/MC4 selectivity came out at 316.25.
Then “Ac-Tyr-Arg-cyclo[Cys-Glu-His-D-Phe-Arg-Trp-Cys]-Ser-Pro alcohol [Compound 120]”, with 1.00.
Then “Ac-YRCFH[dF]RWC-NH2 (disulfide 3-9) [Compound 19]”, with 7.64; and “Ac-Arg-cyclo[Cys-Glu-His-D-Phe-Arg-Trp-Cys]-NH2 [Compound 48]”, with 26.80.
Regarding “cyclo[Cys-His-(4-Cl-D-Phe)-Arg-Trp-hCys]-NH2 [Compound 182]”, the MC1/MC4 selectivity amounted to 185.74.
Then “Ac-cyclo[Cys-Glu-His-(4-F-D-Phe)-Arg-Trp-Cys]-NH2 [Compound 31]”, with 57.02; and “Ac-cyclo[hCys-His-D-Phe-Arg-Trp-penicillamine]-NH2 [Compound 168]”, with 212.71.
Then “Ac-Arg-cyclo[Cys-His-(4-F-D-Phe)-Arg-Trp-hCys]-NH2 [Compound 190]”, with 367.10; and “3-guanidinopropionyl-cyclo[hCys-His-D-Phe-Arg-Trp-Cys]-NH2 [Compound 148]”, with 51.98; and “Ac-D-Arg-cyclo[Cys-Cya-His-D-Phe-Arg-Trp-Cys]-NH2 [Compound 27]”, with 30.11.
Then “Ac-cyclo[Cys-His-(4-Cl-D-Phe)-Arg-Trp-hCys]-NH2 [Compound 185]”, with 269.59; and “Ac-Cit-cyclo[Cys-Glu-His-D-Phe-Arg-Trp-Cys]-NH2 [Compound 55]”, with 28.81; and “N-glutaryl-Tyr-Arg-cyclo[Cys-Glu-His-D-Phe-Arg-Trp-Cys]-NH2 [Compound 75]”, with 6.00.
Turning to “Ac-Tyr-Arg-cyclo[Cys-Glu-(4-phenyl-1H-imidazol-2-yl-Ala)-D-Phe-Arg-Trp-Cys]-NH2 [Compound 103]”, the MC1/MC4 selectivity turned out to be 75.59.
For “Ac-Arg-cyclo[Cys-Glu-(1-Me-His)-D-Phe-Arg-Trp-Cys]-NH2 [Compound 51]”, the MC1/MC4 selectivity was 76.75.
Then “Ac-Tyr-D-Arg-cyclo[Cys-Glu-His-D-Phe-Arg-Trp-Cys]-NH2 [Compound 79]”, with 21.79; and “cyclo[hCys-His-D-Phe-Arg-Trp-Cys]-OH [Compound 133]”, with 31.29; and “Ac-Tyr-Arg-cyclo[Cys-Glu-(β-(1,2,4-triazol-3-yl))-D-Ala)-D-Phe-Arg-Trp-Cys]-NH2 [Compound 107]”, with 1.00.
Then “Ac-RCH[dF]RW[hCys]-NH2 (disulfide 2-7) [Compound 189]”, with 23.31.
Then “Ac-Tyr-Arg-cyclo[Cys-Glu-His-(4-F-D-Phe)-Arg-Trp-Cys]-NH2 [Compound 83]”, with 45.95; and “N-cyclohexanecarbonyl-cyclo[hCys-His-D-Phe-Arg-Trp-penicillamine]-NH2 [Compound 172]”, with 26.45; and “Ac-Tyr-Arg-cyclo[Cys-Glu-His-D-Phe-Arg-Trp-Cys] alcohol [Compound 78]”, with 9.00.
For “Ac-Tyr-hArg-cyclo[Cys-Glu-His-D-Phe-Arg-Trp-Cys]-NH2 [Compound 126]”, the MC1/MC4 selectivity was 22.64.
Then “Ac-Tyr-Arg-cyclo[Cys-Glu-His-D-Phe-Arg-Trp-Cys]-2-(2-aminoethoxy)ethanol [Compound 115]”, with 2.00.
Then “N-propionyl-cyclo[Cys-Glu-His-D-Phe-Arg-Trp-Cys]-NH2 [Compound 37]”, with 36.99; and “Arg-cyclo[hCys-His-D-Phe-Arg-Trp-hCys]-NH2 [Compound 194]”, with 10.61.
Then “N-glutaryl-Tyr-Arg-cyclo[Cys-Glu-His-D-Phe-Arg-Trp-Cys]-OH [Compound 76]”, with 6.00; and “Ac-cyclo[hCys-His-(4-F-D-Phe)-Arg-Trp-Cys]-NH2 [Compound 139]”, with 44.29.
“Ac-Arg-cyclo[Cys-Glu-His-(4-Cl-D-Phe)-Arg-Trp-Cys]-NH2 [Compound 50]”: the MC1/MC4 selectivity came to 36.10.
Regarding “Ac-CKH[dF]RWC-NH2 (disulfide 1-7) [Compound 16]”, the MC1/MC4 selectivity came out at 2.94.
Then “cyclo[Cys-His-D-Phe-Arg-Trp-hCys]-NH2 [Compound 180]”, with 30.38; and “Ac-YRCEH[dF]RWCRF-NH2 (disulfide 3-9) [Compound 123]”, with 2.42.
Then “Ac-Arg-cyclo[Cys-Glu-His-D-Phe-Arg-Trp-Cys]-OH [Compound 49]”, with 35.35; and “5-guanidinovaleryl-cyclo[hCys-His-D-Phe-Arg-Trp-Cys]-NH2 [Compound 149]”, with 51.85; and “Ac-YR[hCys]H[dF]RW[hCys]-NH2 (disulfide 3-8) [Compound 196]”, with 4.98.
Then “Ac-Lys(ipr)-cyclo[Cys-Glu-His-D-Phe-Arg-Trp-Cys]-NH2 [Compound 59]”, with 20.92.
Regarding “Ac-YRCQH[dF]RWC-OMe (disulfide 3-9) [Compound 10]”, the MC1/MC4 selectivity turned out to be 9.50.
Then “YRCGH[dF]RWC-NH2 (disulfide 3-9) [Compound 11]”, with 11.00; and “N-butyryl-cyclo[Cys-Glu-His-D-Phe-Arg-Trp-Cys]-NH2 [Compound 38]”, with 28.16; and “N-hexanoyl-cyclo[hCys-His-D-Phe-Arg-Trp-penicillamine]-NH2 [Compound 170]”, with 9.00.
Take “N-(4-phenylsulfonamido-4-oxo-butyryl)-cyclo[hCys-His-D-Phe-Arg-Trp-Cys]-NH2 [Compound 152]”: the MC1/MC4 selectivity was determined as 7.73.
Then “N-cyclopentanecarbonyl-cyclo[hCys-His-D-Phe-Arg-Trp-penicillamine]-NH2 [Compound 171]”, with 75.11; and “cyclo[Cys-His-(4-F-D-Phe)-Arg-Trp-hCys]-NH2 [Compound 181]”, with 45.25; and “cyclo[hCys-His-(4-Cl-D-Phe)-Arg-Trp-Cys]-NH2 [Compound 135]”, with 120.27.
With “Arg-cyclo[Cys-His-(4-Cl-D-Phe)-Arg-Trp-hCys]-NH2 [Compound 188]”, the MC1/MC4 selectivity is recorded as 29.56.
Then “Ac-Tyr-Arg-cyclo[Cys-Glu-(2-pyrazine-Ala)-D-Phe-Arg-Trp-Cys]-NH2 [Compound 105]”, with 24.04; and “YRCEH[dF]RWCE-NH2 (disulfide 3-9) [Compound 71]”, with 5.13; and “Ac-Tyr-Arg-cyclo[Cys-Glu-(β-(thien-2-yl)-Ala)-D-Phe-Arg-Trp-Cys]-NH2 [Compound 111]”, with 7.67.
Then “Ac-Tyr-Arg-cyclo[Cys-Glu-(1-pyrazolyl-Ala)-D-Phe-Arg-Trp-Cys]-NH2 [Compound 102]”, with 4.76.
For “Ac-CEH[dF]RWCKP-NH2 (disulfide 1-7) [Compound 35]”, the MC1/MC4 selectivity turned out to be 1.17.
Then “N-cyclopentanecarbonyl-cyclo[hCys-His-D-Phe-Arg-Trp-Cys]-NH2 [Compound 143]”, with 19.27.
Then “Ac-diaminobutyryl-cyclo[Cys-Glu-His-D-Phe-Arg-Trp-Cys]-NH2 [Compound 44]”, with 15.00; and “Ac-cyclo[hCys-His-(4-Cl-D-Phe)-Arg-Trp-Cys]-NH2 [Compound 140]”, with 128.15.
Then “Ac-Orn-cyclo[Cys-Glu-His-D-Phe-Arg-Trp-Cys]-NH2 [Compound 62]”, with 46.91.
On to “Ac-YRCIH[dF]RWC-NH2 (disulfide 3-9) [Compound 14]”, for which the MC1/MC4 selectivity came to 12.54.
Then “Ac-Tyr-Arg-cyclo[Cys-Cya-His-D-Phe-Arg-Trp-Cys]-NH2 [Compound 28]”, with 26.35.
Then “Ac-Tyr-Arg-cyclo[Cys-Glu-(β-((1-benzyl)-1,2,4-triazol-3-yl))-D-Ala)-D-Phe-Arg-Trp-Cys]-NH2 [Compound 109]”, with 6.05; and “cyclo[hCys-His-(4-F-D-Phe)-Arg-Trp-Cys]-NH2 [Compound 134]”, with 68.42; and “[dR][hCys]H[dF]RWC-NH2 (disulfide 2-7) [Compound 154]”, with 36.00.
With “Ac-Tyr-Arg-cyclo[Cys-Glu-(1-benzyl-D-His)-D-Phe-Arg-Trp-Cys]-NH2 [Compound 100]”, the MC1/MC4 selectivity turned out to be 1.67.
Then “Ac-nLeu-cyclo[hCys-His-D-Phe-Arg-Trp-Cys]-NH2 [Compound 160]”, with 0.90.
